Laboratory results: patent publication US11040981B2, “Pyrrolotriazine compounds and methods of inhibiting TAM kinases” (Syros Pharmaceuticals, Inc., priority 2017, dated 2021)

What was measured:
MERTK = target: T1, MERTK (Homo sapiens, UniProt Q12866); assay: TR-FRET kinase activity assay, MERTK; format: biochemical; details: for IC50: TR-FRET activity assay, ATP at Km, 60 minutes, read-out: Mer IC50
T1 sequence (Q12866 21-999): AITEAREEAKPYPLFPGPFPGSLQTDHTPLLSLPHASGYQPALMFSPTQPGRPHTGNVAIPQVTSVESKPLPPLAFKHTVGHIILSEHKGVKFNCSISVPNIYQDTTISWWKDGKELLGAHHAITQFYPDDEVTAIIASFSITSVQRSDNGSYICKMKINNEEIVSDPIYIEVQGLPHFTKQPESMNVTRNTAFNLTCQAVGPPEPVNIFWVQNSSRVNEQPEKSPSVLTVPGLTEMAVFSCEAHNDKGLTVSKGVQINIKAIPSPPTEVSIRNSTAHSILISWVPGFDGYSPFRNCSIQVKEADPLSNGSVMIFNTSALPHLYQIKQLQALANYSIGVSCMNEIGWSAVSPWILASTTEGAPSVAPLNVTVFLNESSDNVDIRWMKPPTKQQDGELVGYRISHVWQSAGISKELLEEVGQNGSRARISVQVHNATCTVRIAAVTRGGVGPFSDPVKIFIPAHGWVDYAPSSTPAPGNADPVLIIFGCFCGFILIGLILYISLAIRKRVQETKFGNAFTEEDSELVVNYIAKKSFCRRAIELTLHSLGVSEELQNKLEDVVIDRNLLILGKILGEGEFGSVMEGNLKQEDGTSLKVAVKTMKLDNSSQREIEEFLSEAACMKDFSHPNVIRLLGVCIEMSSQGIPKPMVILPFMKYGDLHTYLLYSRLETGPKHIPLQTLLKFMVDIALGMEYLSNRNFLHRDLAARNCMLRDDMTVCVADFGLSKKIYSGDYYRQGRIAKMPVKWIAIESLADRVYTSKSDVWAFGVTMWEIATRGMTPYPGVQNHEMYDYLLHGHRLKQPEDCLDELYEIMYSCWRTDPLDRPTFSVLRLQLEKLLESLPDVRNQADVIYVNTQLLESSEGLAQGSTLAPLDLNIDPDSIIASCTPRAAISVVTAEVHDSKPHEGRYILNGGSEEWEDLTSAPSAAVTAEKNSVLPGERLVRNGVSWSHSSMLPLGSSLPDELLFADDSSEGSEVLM
Outline: (§1)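 Inhibition is measured as loss of phospho-peptide formation: kinase, fluorescent tyrosine peptide and compound are combined, ATP is added at Km, and the reaction proceeds 60 min at RT in pH 7.5 HEPES buffer. An EDTA stop and Eu-labelled phospho-specific antibody allow TR-FRET detection for IC50 fitting.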

AXL = target: T2, AXL (Homo sapiens, UniProt P30530); assay: TR-FRET kinase activity assay, AXL; format: biochemical; details: ATP at Km, 60 minutes
T2 sequence (P30530 26-894): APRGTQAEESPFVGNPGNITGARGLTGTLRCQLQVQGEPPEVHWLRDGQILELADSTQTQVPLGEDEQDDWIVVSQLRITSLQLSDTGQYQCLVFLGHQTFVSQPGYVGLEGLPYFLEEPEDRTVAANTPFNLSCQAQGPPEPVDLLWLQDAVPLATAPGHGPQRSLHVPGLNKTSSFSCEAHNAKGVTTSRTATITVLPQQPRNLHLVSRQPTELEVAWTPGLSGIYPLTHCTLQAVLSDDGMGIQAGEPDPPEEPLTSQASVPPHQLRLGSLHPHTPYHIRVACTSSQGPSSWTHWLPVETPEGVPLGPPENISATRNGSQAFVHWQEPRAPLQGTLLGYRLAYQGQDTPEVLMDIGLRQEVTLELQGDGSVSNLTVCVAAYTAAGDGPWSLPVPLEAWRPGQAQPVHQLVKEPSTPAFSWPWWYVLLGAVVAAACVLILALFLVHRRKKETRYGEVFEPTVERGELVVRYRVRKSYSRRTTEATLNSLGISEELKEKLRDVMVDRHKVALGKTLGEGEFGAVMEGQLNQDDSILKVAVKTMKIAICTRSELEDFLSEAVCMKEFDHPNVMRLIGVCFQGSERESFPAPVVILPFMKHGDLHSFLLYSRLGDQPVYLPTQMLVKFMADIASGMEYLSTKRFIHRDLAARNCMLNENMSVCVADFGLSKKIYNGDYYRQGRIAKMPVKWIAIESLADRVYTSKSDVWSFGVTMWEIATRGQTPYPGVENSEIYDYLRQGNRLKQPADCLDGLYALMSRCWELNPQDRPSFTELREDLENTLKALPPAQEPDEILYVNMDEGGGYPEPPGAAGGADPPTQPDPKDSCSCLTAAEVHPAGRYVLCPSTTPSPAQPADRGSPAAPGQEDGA
Outline: as §1

[1] = ratio calculated as FLT3 IC50/Mer IC50
[2] = ratio of Mer to FLT3: FLT3 IC50/Mer IC50

Row | Structure (SMILES) | IC50 (MERTK) [nM] | FLT3/Mer ratio (FLT3 IC50/Mer IC50) (MERTK; [1]) | IC50 (AXL) [nM] | FLT3/Mer ratio (FLT3 IC50/Mer IC50) (MERTK; [2])
1 | CC(Cc1ccc(F)cc1)Nc1ncc2c(-c3cnn(C4COC4)c3)cc(C3CCC(O)CC3)n2n1 (racemic) [Compound 535] | ≤ 100 | ++ (“++” represents a ratio of between 10 and 100) | ≤ 100 | 
2 | CCOCC(C)Nc1ncc2c(-c3ccc(CN4CCN(C)CC4)cc3)cc(C3CCC(O)CC3)n2n1 (stereo not drawn) [Compound 138] | ≤ 100 |  | 100 to 1000 | ++ (“++” represents a ratio of between 10 and 100)
3 | COCC(C)Nc1ncc2c(-c3ccc(CN4CCCC4)cc3)cc(C3CCC(O)CC3)n2n1 (stereo not drawn) [Compound 142] | ≤ 100 |  | ≤ 100 | +++ (“+++” represents a ratio of >100)
4 | COCC(C)Nc1ncc2c(-c3ccc(C(C)N4CCOCC4)cc3)cc(C3CCC(O)CC3)n2n1 (stereo not drawn) [Compound 143] | ≤ 100 |  | ≤ 100 | ++ (“++” represents a ratio of between 10 and 100)
5 | C[C@H](Nc1ncc2c(-c3cnn(C4COC4)c3)cc([C@H]3CC[C@H](O)CC3)n2n1)C(F)(F)F [Compound 510] | ≤ 100 | +++ (“+++” represents a ratio of >100) | 100 to 1000 | 
6 | COC[C@H](C)Nc1ncc2c(-c3cnn(C4COC4)c3)cc(-c3cccc(O)c3)n2n1 [Compound 511] | ≤ 100 | ++ (“++” represents a ratio of between 10 and 100) | 1000 to 10000 | 
7 | COC[C@H](C)Nc1ncc2c(-c3ccnc(N4CCN(CC5COC5)CC4)c3)cc([C@H]3CC[C@H](O)CC3)n2n1 [Compound 512] | ≤ 100 | +++ (“+++” represents a ratio of >100) | ≤ 100 | 
8 | C[C@@H](COC(F)F)Nc1ncc2c(-c3ccc(S(C)(=O)=O)nc3)cc([C@H]3CC[C@H](O)CC3)n2n1 [Compound 513] | ≤ 100 | +++ (“+++” represents a ratio of >100) | ≤ 100 | 
9 | CCN(C(=O)N1CCN(c2cc(-c3cc([C@H]4CC[C@H](O)CC4)n4nc(N[C@@H](C)COC)ncc34)ccn2)CC1)C(C)C [Compound 514] | ≤ 100 | +++ (“+++” represents a ratio of >100) | ≤ 100 | 
10 | COC[C@H](C)Nc1ncc2c(-c3cnn(C4COC4)c3)cc(C3CCC(F)(F)CC3)n2n1 [Compound 515] | ≤ 100 | +++ (“+++” represents a ratio of >100) | 100 to 1000 | 
11 | COC[C@H](C)Nc1ncc2c(-c3cnn(C(C)(C)C(=O)N4CCCC5(COC5)C4)c3)cc([C@H]3CC[C@H](O)CC3)n2n1 [Compound 516] | ≤ 100 | +++ (“+++” represents a ratio of >100) | ≤ 100 | 
12 | Cc1nnc(C(C)(C)n2cc(-c3cc([C@H]4CC[C@H](O)CC4)n4nc(N[C@@H](C)COC(F)F)ncc34)cn2)o1 [Compound 517] | ≤ 100 | +++ (“+++” represents a ratio of >100) | ≤ 100 | 
13 | COC[C@H](C)Nc1ncc2c(-c3ccnc(N4CCc5cnn(C)c5C4)c3)cc([C@H]3CC[C@H](O)CC3)n2n1 [Compound 518] | ≤ 100 | +++ (“+++” represents a ratio of >100) | ≤ 100 | 
14 | COC[C@H](C)Nc1ncc2c(-c3cnn(C4COC4)c3)cc(C3CCSCC3)n2n1 [Compound 522] | ≤ 100 | +++ (“+++” represents a ratio of >100) | 100 to 1000 | 
15 | COC[C@H](C)Nc1ncc2c(-c3cnn(C4COC4)c3)cc(C3CCC(=O)NC3)n2n1 (stereo partly drawn) [Compound 526] | ≤ 100 | ++ (“++” represents a ratio of between 10 and 100) | 1000 to 10000 | 
16 | C[C@@H](Nc1ncc2c(-c3cnn(C4COC4)c3)cc([C@H]3CC[C@H](O)CC3)n2n1)C(F)(F)F [Compound 527] | ≤ 100 | +++ (“+++” represents a ratio of >100) | 100 to 1000 | 
17 | COC[C@H](C)Nc1ncc2c(-c3ccc([S@](C)(=N)=O)nc3)cc([C@H]3CC[C@H](O)CC3)n2n1 [Compound 532] | ≤ 100 | +++ (“+++” represents a ratio of >100) | ≤ 100 | 
18 | COC[C@H](C)Nc1ncc2c(-c3ccc([S@@](C)(=N)=O)nc3)cc([C@H]3CC[C@H](O)CC3)n2n1 [Compound 533] | ≤ 100 | +++ (“+++” represents a ratio of >100) | ≤ 100 | 

More lines, now with the values ahead:

Row | IC50 (MERTK) [nM] | FLT3/Mer ratio (FLT3 IC50/Mer IC50) (MERTK; [1]) | IC50 (AXL) [nM] | FLT3/Mer ratio (FLT3 IC50/Mer IC50) (MERTK; [2]) | Structure (SMILES)
19 | ≤ 100 | +++ (“+++” represents a ratio of >100) | 1000 to 10000 |  | COCC(C)Nc1ncc2c(-c3cnn(C4COC4)c3)cc(C3CCNC(=O)C3)n2n1 (mixture of isomers) [Compound 592]
20 | ≤ 100 | +++ (“+++” represents a ratio of >100) | ≤ 100 |  | CC(COc1ccccc1)Nc1ncc2c(-c3cnn(C4COC4)c3)cc([C@H]3CC[C@H](O)CC3)n2n1 (mixture of isomers) [Compound 528]
21 | ≤ 100 | +++ (“+++” represents a ratio of >100) | 100 to 1000 |  | CC(Nc1ncc2c(-c3cnn(C4COC4)c3)cc(C3CCC(O)CC3)n2n1)c1cccnc1 (racemic) [Compound 536]
22 | ≤ 100 |  | ≤ 100 | +++ (“+++” represents a ratio of >100) | CC[C@H](C)Nc1ncc2c(C3CCNCC3)cc([C@H]3CC[C@H](O)CC3)n2n1 [Compound 135, (trans)-4-(2-((S)-sec-butylamino)-5-(piperidin-4-yl)pyrrolo[2,1-f][1,2,4]triazin-7-yl)cyclohexanol]
23 | ≤ 100 |  | 100 to 1000 | +++ (“+++” represents a ratio of >100) | CC[C@H](C)Nc1ncc2c(C3CCN(c4nccc(C)n4)CC3)cc([C@H]3CC[C@H](O)CC3)n2n1 [Compound 136, (trans)-4-(2-((S)-sec-butylamino)-5-(1-(4-methylpyrimidin-2-yl)piperidin-4-yl)pyrrolo[2,1-f][1,2,4]triazin-7-yl)cyclohexanol]
24 | ≤ 100 |  | ≤ 100 | +++ (“+++” represents a ratio of >100) | CCCCC[C@H](C)Nc1ncc2c([C@H]3CC[C@@H](C(=O)N4CCS(=O)(=O)CC4)CC3)cc([C@H]3CC[C@H](O)CC3)n2n1 [Compound 137]
25 | ≤ 100 |  | ≤ 100 | +++ (“+++” represents a ratio of >100) | COC[C@H](C)Nc1ncc2c(-c3ccc(C(=O)O)cc3)cc([C@H]3CC[C@H](O)CC3)n2n1 [Compound 139]
26 | ≤ 100 |  | ≤ 100 | +++ (“+++” represents a ratio of >100) | COC[C@H](C)Nc1ncc2c(-c3ccc(CN4CCOCC4)cc3)cc([C@H]3CC[C@H](O)CC3)n2n1 [Compound 140]
27 | ≤ 100 |  | ≤ 100 | +++ (“+++” represents a ratio of >100) | COC[C@H](C)Nc1ncc2c(C3=CCOCC3)cc([C@H]3CC[C@H](O)CC3)n2n1 [Compound 141]
